Laboratory results published in US20080222745A1, “Colcemid-Treatment of Oocytes to enhance Nuclear Transfer Cloning” (Utah State University, priority 2007, published 2008).
“And” between values parts separate entries of the source, which are not always exact repeats. Identical values can stand only once. “Also recorded” adds a separate entry of the source. Like-named read-outs stand apart in the source and are kept apart here. Marks after values point to notes of the source that are not given here.

What was measured:
[1] = test system: NT embryos transferred to recipient cows; assay: Pregnancy rates after transfer of NT embryos to recipient cows; type: in vivo, bovine
Excerpt: FIG. 1 is a diagram showing pregnancy rates throughout gestation following transfer of NT embryos derived from colcemid-treated versus untreated heifer cytoplasts. […] Six to seven days after NT, morulae and blastocysts were transferred to recipient cows. The solid bars show pregnancy rates for nuclear transfer embryos generated from heifer oocytes which were not treated with colcemid.
The day 6-7 morulae and blastocysts were selected and transferred to recipient cows. A total of 191 recipient cows were used for embryo transfer. Forty cows received embryos from colcemid-treated oocytes and 151 cows received embryos from non-treated oocytes. Pregnancy rates were monitored throughout gestation.

bovine oocytes [2] = settings: colcemid vs control, 15-22 hr maturation
bovine oocytes [3] = assay: Membrane projections of bovine oocytes after colcemid treatment; type: cell-based; settings: for oocytes exhibiting an obvious membrane projection: colcemid treatment for 2 to 4 hr
bovine NT blastocysts = assay: Chromosomal analysis and cell number count of Day 7 NT blastocysts; type: cell-based; settings: for No. cells blastocysts (mean ± SD): oocytes matured 16-17 hours, 0.2 μg/ml for 2-3 hours; for Cell number of blastocysts (mean ± SD): 0.2 μg/ml for 2-3 hr
Experimental: Day 7 blastocysts were prepared and examined for their cytogenetic composition and the number of nuclei contained was verified. […] Chromosomes were examined at 1000× under a Zeiss microscope, and the chromosome composition was determined for each blastocyst.

## CN[C@H]1CCc2cc(OC)c(OC)c(OC)c2-c2ccc(OC)c(=O)cc21 [colcemid, N-deacetyl-N-methylcolchicine]
[1]; MI heifer oocytes matured 16-17 hr, 0.2 or 0.4 μg/ml colcemid 2-3 hr, 40 recipient cows, non-treated group 3.3%
  term rate: 12.5%
[1]; at 60, 90, 180 days, P<0.05
  pregnancy rates vs non-treated group: Higher
Bovine oocytes [2]
  intracellular calcium transients, trend between treatments: No trend
Bovine oocytes [3]; oocytes with PB1 matured 16-17 hr, 0.2 μg/ml for 2 h, 26 of 36 oocytes
  No. oocytes with blebs or Pb1 + bleb (%): 26 (72.2) %
Bovine oocytes [3]; oocytes with PB1 matured 16-17 hr, 0.2 μg/ml for 4 h, 31 of 39 oocytes
  No. oocytes with blebs or Pb1 + bleb (%): 31 (79.5) %
Bovine oocytes [3]; oocytes with PB1 matured 16-17 hr, 0.4 μg/ml for 2 h, 29 of 38 oocytes
  No. oocytes with blebs or Pb1 + bleb (%): 29 (76.3) %
Bovine oocytes [3]; oocytes with PB1 matured 16-17 hr, 0.4 μg/ml for 4 h, 28 of 38 oocytes
  No. oocytes with blebs or Pb1 + bleb (%): 28 (73.6) %
Bovine oocytes [3]; oocytes with PB1 matured 16-17 hr
  oocytes exhibiting an obvious membrane projection: approximately 80%
Bovine oocytes [3]; oocytes without PB1 matured 16-17 hr, 0.1 μg/ml for 1 h, 32 of 46 oocytes
  No. oocytes with blebs or Pb1 + bleb (%): 32 (69.6) %
Bovine oocytes [3]; oocytes without PB1 matured 16-17 hr, 0.1 μg/ml for 2 h, 39 of 48 oocytes
  No. oocytes with blebs or Pb1 + bleb (%): 39 (81.2) %
Bovine oocytes [3]; oocytes without PB1 matured 16-17 hr, 0.1 μg/ml for 4 h, 43 of 46 oocytes
  No. oocytes with blebs or Pb1 + bleb (%): 43 (93.4) %
Bovine oocytes [3]; oocytes without PB1 matured 16-17 hr, 0.2 μg/ml for 2 h, 33 of 42 oocytes
  No. oocytes with blebs or Pb1 + bleb (%): 33 (78.6) %
Bovine oocytes [3]; oocytes without PB1 matured 16-17 hr, 0.2 μg/ml for 4 h, 38 of 42 oocytes
  No. oocytes with blebs or Pb1 + bleb (%): 38 (90.5) %
Bovine oocytes [3]; oocytes without PB1 matured 16-17 hr, 0.4 μg/ml for 2 h, 35 of 43 oocytes
  No. oocytes with blebs or Pb1 + bleb (%): 35 (81.3) %
Bovine oocytes [3]; oocytes without PB1 matured 16-17 hr, 0.4 μg/ml for 4 h, 34 of 41 oocytes
  No. oocytes with blebs or Pb1 + bleb (%): 34 (82.9) %
Bovine oocytes [3]; oocytes without PB1 matured 16-17 hr
  oocytes exhibiting an obvious membrane projection: 80-93%
Bovine NT embryos; Table 3: oocytes matured 16-17 hr, 0.2 μg/ml for 2-3 h, 38 of 90 embryos cultured
  Blastocyst (%): 38 (42.2)^a %
Bovine NT embryos; Table 3: oocytes matured 16-17 hr, 0.2 μg/ml for 2-3 h, 44 of 90 embryos cultured
  Morula (%): 44 (48.9)^a %
Bovine NT embryos; Table 3: oocytes matured 16-17 hr, 0.2 μg/ml for 2-3 h, 76 of 90 embryos cultured
  2-cell (%): 76 (84.4) %
Bovine NT embryos; among treatment groups, vs controls, 0.2 μg/ml for 2-3 hr
  cleavage of NT embryos: no difference
Bovine NT embryos; colcemid groups vs untreated groups
  rate of hatched blastocysts vs untreated groups: much higher
Bovine NT embryos; culture in SCR or BCR media
  rate of morula and blastocyst development vs untreated groups: improved
Bovine NT embryos; culture system BCR, oocytes matured 16-17 hours, 0.2 μg/ml for 2-3 hours, 20 of 110 cloned embryos, 5% CO2 in air
  Blastocyst (%): 18.6% and 20 (18.2)^c %
Bovine NT embryos; culture system BCR, oocytes matured 16-17 hours, 0.2 μg/ml for 2-3 hours, 27 of 110 cloned embryos
  Morula (%): 27 (24.5)^b %
Bovine NT embryos; culture system BCR, oocytes matured 16-17 hours, 0.2 μg/ml for 2-3 hours, 81 of 110 cloned embryos
  2-cell (%): 81 (73.6) %
Bovine NT embryos; culture system BCR, oocytes matured 16-17 hours, 0.2 μg/ml for 2-3 hours, 110 cloned embryos
  Hatched blastocyst (%): 0%
Bovine NT embryos; culture system SCR and co-culture, oocytes matured 16-17 hours, 0.2 μg/ml for 2-3 hours, 19 of 86 cloned embryos
  Hatched blastocyst (%): 19 (22.0)^a %
Bovine NT embryos; culture system SCR and co-culture, oocytes matured 16-17 hours, 0.2 μg/ml for 2-3 hours, 34 of 86 cloned embryos
  Blastocyst (%): 39.5% and 34 (39.5)^a %
Bovine NT embryos; culture system SCR and co-culture, oocytes matured 16-17 hours, 0.2 μg/ml for 2-3 hours, 42 of 86 cloned embryos
  Morula (%): 42 (48.8)^a %
Bovine NT embryos; culture system SCR and co-culture, oocytes matured 16-17 hours, 0.2 μg/ml for 2-3 hours, 74 of 86 cloned embryos
  2-cell (%): 74 (86.0) %
Bovine NT embryos; culture system SCR, oocytes matured 16-17 hours, 0.2 μg/ml for 2-3 hours, 5 of 135 cloned embryos
  Hatched blastocyst (%): 5 (3.7)^b %
Bovine NT embryos; culture system SCR, oocytes matured 16-17 hours, 0.2 μg/ml for 2-3 hours, 31 of 135 cloned embryos
  Blastocyst (%): 31 (23.0)^b %
Bovine NT embryos; culture system SCR, oocytes matured 16-17 hours, 0.2 μg/ml for 2-3 hours, 41 of 135 cloned embryos
  Morula (%): 41 (30.3)^b %
Bovine NT embryos; culture system SCR, oocytes matured 16-17 hours, 0.2 μg/ml for 2-3 hours, 96 of 135 cloned embryos
  2-cell (%): 96 (71.1) %
Bovine NT embryos; oocytes matured 14-15 hr, without PB1, 0.2 μg/ml for 2-3 hr, 26 of 100 embryos cultured
  Hatching Blastocyst (%): 26 (26)^a %
Bovine NT embryos; oocytes matured 14-15 hr, without PB1, 0.2 μg/ml for 2-3 hr, 40 of 100 embryos cultured
  Blastocyst (%): 40% and 40 (40)^a %
Bovine NT embryos; oocytes matured 14-15 hr, without PB1, 0.2 μg/ml for 2-3 hr, 48 of 100 embryos cultured
  Morula (%): 48 (48) %
Bovine NT embryos; oocytes matured 14-15 hr, without PB1, 0.2 μg/ml for 2-3 hr, 85 of 100 embryos cultured
  2-cell (%): 85 (85) %
Bovine NT embryos; oocytes matured 16-17 hr, with PB1, 0.2 μg/ml for 2-3 hr, 21 of 81 embryos cultured
  Hatching Blastocyst (%): 21 (25.9)^a %
Bovine NT embryos; oocytes matured 16-17 hr, with PB1, 0.2 μg/ml for 2-3 hr, 36 of 81 embryos cultured
  Blastocyst (%): 44.4% and 36 (44.4)^a %
Bovine NT embryos; oocytes matured 16-17 hr, with PB1, 0.2 μg/ml for 2-3 hr, 45 of 81 embryos cultured
  Morula (%): 45 (55.6) %
Bovine NT embryos; oocytes matured 16-17 hr, with PB1, 0.2 μg/ml for 2-3 hr, 69 of 81 embryos cultured
  2-cell (%): 69 (85.2) %
Bovine NT embryos; oocytes matured 16-17 hr, without PB1, 0.2 μg/ml for 2-3 hr, 22 of 90 embryos cultured
  Hatching Blastocyst (%): 22 (24.2)^a %
Bovine NT embryos; oocytes matured 16-17 hr, without PB1, 0.2 μg/ml for 2-3 hr, 38 of 90 embryos cultured
  Blastocyst (%): 42.2% and 38 (42.2)^a %
Bovine NT embryos; oocytes matured 16-17 hr, without PB1, 0.2 μg/ml for 2-3 hr, 44 of 90 embryos cultured
  Morula (%): 44 (48.9) %
Bovine NT embryos; oocytes matured 16-17 hr, without PB1, 0.2 μg/ml for 2-3 hr, 76 of 90 embryos cultured
  2-cell (%): 76 (84.4) %
Bovine NT embryos; oocytes matured 16-17 hr, 0.2 μg/ml for 5-6 h, 32 of 76 embryos cultured
  Blastocyst (%): 32 (42.1)^a %
Bovine NT embryos; oocytes matured 16-17 hr, 0.2 μg/ml for 5-6 h, 37 of 76 embryos cultured
  Morula (%): 37 (48.7)^a %
Bovine NT embryos; oocytes matured 16-17 hr, 0.2 μg/ml for 5-6 h, 69 of 76 embryos cultured
  2-cell (%): 69 (90.8) %
Bovine NT embryos; oocytes matured 16-17 hr, 0.4 μg/ml for 2-3 h, 32 of 73 embryos cultured
  Blastocyst (%): 32 (43.8)^a %
Bovine NT embryos; oocytes matured 16-17 hr, 0.4 μg/ml for 2-3 h, 37 of 73 embryos cultured
  Morula (%): 37 (50.7)^a %
Bovine NT embryos; oocytes matured 16-17 hr, 0.4 μg/ml for 2-3 h, 66 of 73 embryos cultured
  2-cell (%): 66 (90.4) %
Bovine NT embryos; oocytes matured 16-17 hr, 0.4 μg/ml for 5-6 h, 31 of 81 embryos cultured
  Blastocyst (%): 31 (38.8)^a %
Bovine NT embryos; oocytes matured 16-17 hr, 0.4 μg/ml for 5-6 h, 39 of 81 embryos cultured
  Morula (%): 39 (48.1)^a %
Bovine NT embryos; oocytes matured 16-17 hr, 0.4 μg/ml for 5-6 h, 66 of 81 embryos cultured
  2-cell (%): 66 (81.5) %
Bovine NT embryos; oocytes matured 19-20 hr, with PB1, 0.2 μg/ml for 2-3 hr, 30 of 107 embryos cultured
  Blastocyst (%): 30 (28.0)^b %
Bovine NT embryos; oocytes matured 19-20 hr, with PB1, 0.2 μg/ml for 2-3 hr, 38 of 107 embryos cultured
  Morula (%): 38 (35.5) %
Bovine NT embryos; oocytes matured 19-20 hr, with PB1, 0.2 μg/ml for 2-3 hr, 88 of 107 embryos cultured
  2-cell (%): 88 (82.2) %
Bovine NT embryos; oocytes matured 19-20 hr, with PB1, 0.2 μg/ml for 2-3 hr, printed count 6, 107 embryos cultured
  Hatching Blastocyst (%): 6 (15.0)^b %
Bovine NT embryos; oocytes matured 19-20 hr, without PB1, 0.2 μg/ml for 2-3 hr, 14 of 66 embryos cultured
  Hatching Blastocyst (%): 14 (21.2)^a %
Bovine NT embryos; oocytes matured 19-20 hr, without PB1, 0.2 μg/ml for 2-3 hr, 25 of 66 embryos cultured
  Blastocyst (%): 38% and 25 (37.9)^a %
Bovine NT embryos; oocytes matured 19-20 hr, without PB1, 0.2 μg/ml for 2-3 hr, 32 of 66 embryos cultured
  Morula (%): 32 (48.5) %
Bovine NT embryos; oocytes matured 19-20 hr, without PB1, 0.2 μg/ml for 2-3 hr, 56 of 66 embryos cultured
  2-cell (%): 56 (84.8) %
Bovine NT embryos; under 5% CO2 in air, especially oocytes matured for 14 to 17 hr and treated with colcemid
  average blastocyst development rate: over 40%
Bovine NT blastocysts; colcemid-treated groups vs control groups
  Cell numbers of blastocysts vs control groups: numerically higher; also recorded: numerical higher
Bovine NT blastocysts; culture system BCR
  No. cells blastocysts (mean ± SD): 50.3 ± 7.6^c
Bovine NT blastocysts; culture system SCR and co-culture
  No. cells blastocysts (mean ± SD): 107.8 ± 21.6^a
Bovine NT blastocysts; culture system SCR
  No. cells blastocysts (mean ± SD): 70.5 ± 7.8^b
Bovine NT blastocysts; embryos cultured in SCR and BCR systems
  cell number of blastocysts vs untreated: increased
Bovine NT blastocysts; oocytes matured 14-15 hr, without PB1
  Cell number of blastocysts (mean ± SD): 113 ± 10
Bovine NT blastocysts; oocytes matured 16-17 hr, with PB1
  Cell number of blastocysts (mean ± SD): 103 ± 20
Bovine NT blastocysts; oocytes matured 16-17 hr, without PB1
  Cell number of blastocysts (mean ± SD): 118 ± 17
Bovine NT blastocysts; oocytes matured 19-20 hr, with PB1
  Cell number of blastocysts (mean ± SD): 91 ± 9
Bovine NT blastocysts; oocytes matured 19-20 hr, without PB1
  Cell number of blastocysts (mean ± SD): 107 ± 11
